Reference: PMC12586182 (Frontiers in Oncology, 2025)

Experiments:
Experiment in all cases: Kinase panel profiling at 1 µmol/L (mobility shift assay, Carna)
DDR1 = target: T1, DDR1 (Homo sapiens, UniProt Q08345); format: biochemical; settings: 1 µmol/L of BTK inhibitor
T1 construct: purchased Carna Biosciences

EPHA2 = target: T2, EPHA2 (Homo sapiens, UniProt P29317); format: biochemical; settings: 1 µmol/L of BTK inhibitor
T2 construct: purchased Carna Biosciences

LYNb = target: T3, LYNb (Homo sapiens, UniProt P07948); format: biochemical; settings: 1 µmol/L of BTK inhibitor
T3 construct: purchased Carna Biosciences

CDC7/ASK = target: T4, CDC7/ASK (Homo sapiens, UniProt O00311); format: biochemical; settings: 1 µmol/L of BTK inhibitor
T4 construct: purchased Carna Biosciences

CDK2/CycE1 = target: T5, CDK2/CycE1 (Homo sapiens, UniProt P24941); format: biochemical; settings: 1 µmol/L of BTK inhibitor
T5 construct: purchased Carna Biosciences

HIPK4 = target: T6, HIPK4 (Homo sapiens, UniProt Q8NE63); format: biochemical; settings: 1 µmol/L of BTK inhibitor
T6 construct: purchased Carna Biosciences
T6 sequence (Q8NE63 1-616): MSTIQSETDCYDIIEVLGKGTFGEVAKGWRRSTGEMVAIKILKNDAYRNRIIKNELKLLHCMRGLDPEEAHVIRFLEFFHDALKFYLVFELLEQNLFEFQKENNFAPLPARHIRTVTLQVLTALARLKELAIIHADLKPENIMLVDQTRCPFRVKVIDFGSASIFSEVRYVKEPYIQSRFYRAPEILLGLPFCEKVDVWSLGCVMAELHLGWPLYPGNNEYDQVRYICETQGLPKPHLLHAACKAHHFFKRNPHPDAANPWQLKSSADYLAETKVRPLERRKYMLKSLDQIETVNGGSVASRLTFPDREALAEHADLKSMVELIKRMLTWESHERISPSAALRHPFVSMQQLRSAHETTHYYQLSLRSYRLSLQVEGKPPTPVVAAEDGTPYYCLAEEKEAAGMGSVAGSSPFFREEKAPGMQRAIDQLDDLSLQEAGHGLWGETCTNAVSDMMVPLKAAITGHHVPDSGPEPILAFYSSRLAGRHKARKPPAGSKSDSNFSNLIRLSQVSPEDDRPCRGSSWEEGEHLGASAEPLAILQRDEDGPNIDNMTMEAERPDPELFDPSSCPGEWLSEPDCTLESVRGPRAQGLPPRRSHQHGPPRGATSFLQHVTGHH

MST3 = target: T7, MST3 (Homo sapiens, UniProt Q9Y6E0); format: biochemical; settings: 1 µmol/L of BTK inhibitor
T7 construct: purchased Carna Biosciences

PDHK4 = target: T8, PDHK4 (Homo sapiens, UniProt Q16654); format: biochemical; settings: 1 µmol/L of BTK inhibitor
T8 construct: purchased Carna Biosciences

PHKG1 = target: T9, PHKG1 (Homo sapiens, UniProt Q16816); format: biochemical; settings: 1 µmol/L of BTK inhibitor
T9 construct: purchased Carna Biosciences

PIM2 = target: T10, PIM2 (Homo sapiens, UniProt Q9P1W9); format: biochemical; settings: 1 µmol/L of BTK inhibitor
T10 construct: purchased Carna Biosciences

PKACα = target: T11, PKACα (Homo sapiens, UniProt P17612); format: biochemical; settings: 1 µmol/L of BTK inhibitor
T11 construct: purchased Carna Biosciences

PKCβ1 = target: T12, PKCβ1 (Homo sapiens, UniProt P05771); format: biochemical; settings: 1 µmol/L of BTK inhibitor
T12 construct: purchased Carna Biosciences

PKCε = target: T13, PKCε (Homo sapiens, UniProt Q02156); format: biochemical; settings: 1 µmol/L of BTK inhibitor
T13 construct: purchased Carna Biosciences
T13 sequence (Q02156 1-737): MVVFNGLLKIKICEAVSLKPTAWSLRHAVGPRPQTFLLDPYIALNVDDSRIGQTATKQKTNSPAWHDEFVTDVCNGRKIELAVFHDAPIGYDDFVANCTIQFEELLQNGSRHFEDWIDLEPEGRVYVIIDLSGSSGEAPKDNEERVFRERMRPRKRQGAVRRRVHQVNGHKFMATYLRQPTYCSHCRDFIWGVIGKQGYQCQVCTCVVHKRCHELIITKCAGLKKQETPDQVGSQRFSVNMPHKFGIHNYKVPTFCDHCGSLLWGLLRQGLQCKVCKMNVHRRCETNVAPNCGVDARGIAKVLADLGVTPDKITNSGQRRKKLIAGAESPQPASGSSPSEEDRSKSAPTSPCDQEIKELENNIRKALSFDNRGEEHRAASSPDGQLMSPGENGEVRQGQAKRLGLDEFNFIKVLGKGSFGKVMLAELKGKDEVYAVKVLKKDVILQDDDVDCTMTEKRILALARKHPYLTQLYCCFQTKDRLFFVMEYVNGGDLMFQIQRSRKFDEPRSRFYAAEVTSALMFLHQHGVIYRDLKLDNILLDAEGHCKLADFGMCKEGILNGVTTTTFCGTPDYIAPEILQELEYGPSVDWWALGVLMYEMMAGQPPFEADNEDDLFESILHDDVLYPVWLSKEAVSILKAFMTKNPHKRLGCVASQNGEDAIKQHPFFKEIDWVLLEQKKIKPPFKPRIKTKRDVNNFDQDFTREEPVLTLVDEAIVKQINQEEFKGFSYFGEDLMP

PLK2 = target: T14, PLK2 (Homo sapiens, UniProt Q9NYY3); format: biochemical; settings: 1 µmol/L of BTK inhibitor
T14 construct: purchased Carna Biosciences

ROCK2 = target: T15, ROCK2 (Homo sapiens, UniProt O75116); format: biochemical; settings: 1 µmol/L of BTK inhibitor
T15 construct: purchased Carna Biosciences

Aurora B = Aurora B (Homo sapiens, UniProt Q96GD4); settings: for Percentage inhibition of kinase enzyme activity: AurB, 1 µmol/L of BTK inhibitor
Aurora B, sequence (Q96GD4 whole entry): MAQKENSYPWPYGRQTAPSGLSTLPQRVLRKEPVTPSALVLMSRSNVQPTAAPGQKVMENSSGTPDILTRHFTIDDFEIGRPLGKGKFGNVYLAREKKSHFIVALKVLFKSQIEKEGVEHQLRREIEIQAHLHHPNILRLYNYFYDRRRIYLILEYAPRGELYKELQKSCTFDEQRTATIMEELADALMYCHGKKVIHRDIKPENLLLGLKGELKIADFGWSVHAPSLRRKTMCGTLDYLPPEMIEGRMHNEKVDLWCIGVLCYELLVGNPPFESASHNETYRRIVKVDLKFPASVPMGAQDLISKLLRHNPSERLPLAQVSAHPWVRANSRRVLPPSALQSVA
Aurora B, sequence (Q9NQS7 803-916 partner limits assumed): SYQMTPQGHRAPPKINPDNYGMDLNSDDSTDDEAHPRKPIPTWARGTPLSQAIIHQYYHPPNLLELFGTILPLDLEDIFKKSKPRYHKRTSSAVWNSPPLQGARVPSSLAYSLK

T2 sequence (P29317 24-976): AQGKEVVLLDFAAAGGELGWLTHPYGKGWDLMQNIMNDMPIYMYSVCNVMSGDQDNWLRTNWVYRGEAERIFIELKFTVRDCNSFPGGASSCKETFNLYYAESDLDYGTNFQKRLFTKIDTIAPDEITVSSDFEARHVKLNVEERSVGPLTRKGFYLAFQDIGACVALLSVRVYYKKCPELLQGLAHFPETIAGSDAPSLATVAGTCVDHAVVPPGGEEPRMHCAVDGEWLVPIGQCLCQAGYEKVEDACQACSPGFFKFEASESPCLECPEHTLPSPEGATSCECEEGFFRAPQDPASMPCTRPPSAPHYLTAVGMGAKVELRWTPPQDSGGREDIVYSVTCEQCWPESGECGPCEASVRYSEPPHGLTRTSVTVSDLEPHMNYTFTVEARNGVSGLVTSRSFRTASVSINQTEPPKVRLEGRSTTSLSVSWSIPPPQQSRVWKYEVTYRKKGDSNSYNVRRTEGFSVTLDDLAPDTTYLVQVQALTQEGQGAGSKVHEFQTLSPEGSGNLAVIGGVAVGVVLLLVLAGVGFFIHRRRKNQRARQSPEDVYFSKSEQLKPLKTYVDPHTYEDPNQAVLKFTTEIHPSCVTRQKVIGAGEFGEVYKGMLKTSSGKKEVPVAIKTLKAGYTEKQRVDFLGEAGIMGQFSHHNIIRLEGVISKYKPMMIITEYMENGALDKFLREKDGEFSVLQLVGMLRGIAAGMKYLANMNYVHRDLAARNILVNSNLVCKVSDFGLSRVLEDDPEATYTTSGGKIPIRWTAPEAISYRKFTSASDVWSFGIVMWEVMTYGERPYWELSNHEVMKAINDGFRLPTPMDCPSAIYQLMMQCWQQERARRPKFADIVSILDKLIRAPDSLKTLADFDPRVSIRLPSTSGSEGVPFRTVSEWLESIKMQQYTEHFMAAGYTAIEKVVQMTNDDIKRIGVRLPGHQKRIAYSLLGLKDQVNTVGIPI
T9 sequence (Q16816 whole entry): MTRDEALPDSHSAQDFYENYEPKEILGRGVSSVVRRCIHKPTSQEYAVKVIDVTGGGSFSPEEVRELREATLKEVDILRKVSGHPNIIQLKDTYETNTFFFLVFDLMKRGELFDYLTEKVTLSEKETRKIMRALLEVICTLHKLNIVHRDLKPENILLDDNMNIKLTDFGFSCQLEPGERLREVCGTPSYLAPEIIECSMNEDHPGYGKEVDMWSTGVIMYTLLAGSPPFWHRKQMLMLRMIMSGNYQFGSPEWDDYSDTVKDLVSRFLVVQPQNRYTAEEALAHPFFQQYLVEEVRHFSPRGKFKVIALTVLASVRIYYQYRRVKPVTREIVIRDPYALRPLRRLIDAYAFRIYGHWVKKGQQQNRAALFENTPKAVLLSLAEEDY
T8 sequence (Q16654 whole entry): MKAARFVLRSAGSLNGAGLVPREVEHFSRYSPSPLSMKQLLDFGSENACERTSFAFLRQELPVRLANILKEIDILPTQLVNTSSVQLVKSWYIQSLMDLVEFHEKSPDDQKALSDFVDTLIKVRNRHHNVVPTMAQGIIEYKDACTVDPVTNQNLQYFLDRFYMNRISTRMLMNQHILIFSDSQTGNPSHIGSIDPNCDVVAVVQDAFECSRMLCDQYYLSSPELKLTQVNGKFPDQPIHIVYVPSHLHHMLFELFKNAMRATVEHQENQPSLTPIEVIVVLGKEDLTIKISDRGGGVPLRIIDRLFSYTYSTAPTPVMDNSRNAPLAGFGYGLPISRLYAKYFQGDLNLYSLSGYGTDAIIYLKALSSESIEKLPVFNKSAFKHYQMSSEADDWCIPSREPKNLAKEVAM
T12 sequence (P05771 whole entry): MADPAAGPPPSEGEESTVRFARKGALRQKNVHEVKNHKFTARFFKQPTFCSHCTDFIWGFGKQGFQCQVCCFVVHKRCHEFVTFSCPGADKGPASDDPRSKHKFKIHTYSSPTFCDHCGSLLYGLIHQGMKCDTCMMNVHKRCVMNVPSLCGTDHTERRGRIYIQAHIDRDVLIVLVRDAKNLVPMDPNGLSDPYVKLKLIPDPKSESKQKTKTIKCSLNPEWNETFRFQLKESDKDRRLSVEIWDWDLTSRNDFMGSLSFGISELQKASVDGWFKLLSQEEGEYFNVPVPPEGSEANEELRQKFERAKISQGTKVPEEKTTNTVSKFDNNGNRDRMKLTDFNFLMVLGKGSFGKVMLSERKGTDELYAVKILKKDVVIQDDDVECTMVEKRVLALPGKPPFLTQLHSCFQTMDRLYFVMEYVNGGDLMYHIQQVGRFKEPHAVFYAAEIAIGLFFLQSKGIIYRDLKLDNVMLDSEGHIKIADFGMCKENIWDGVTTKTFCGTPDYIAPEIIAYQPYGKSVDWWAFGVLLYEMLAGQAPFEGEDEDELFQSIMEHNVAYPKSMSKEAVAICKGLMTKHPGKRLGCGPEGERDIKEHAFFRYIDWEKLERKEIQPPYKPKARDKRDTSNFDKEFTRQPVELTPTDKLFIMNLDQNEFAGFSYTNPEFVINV
T14 sequence (Q9NYY3 whole entry): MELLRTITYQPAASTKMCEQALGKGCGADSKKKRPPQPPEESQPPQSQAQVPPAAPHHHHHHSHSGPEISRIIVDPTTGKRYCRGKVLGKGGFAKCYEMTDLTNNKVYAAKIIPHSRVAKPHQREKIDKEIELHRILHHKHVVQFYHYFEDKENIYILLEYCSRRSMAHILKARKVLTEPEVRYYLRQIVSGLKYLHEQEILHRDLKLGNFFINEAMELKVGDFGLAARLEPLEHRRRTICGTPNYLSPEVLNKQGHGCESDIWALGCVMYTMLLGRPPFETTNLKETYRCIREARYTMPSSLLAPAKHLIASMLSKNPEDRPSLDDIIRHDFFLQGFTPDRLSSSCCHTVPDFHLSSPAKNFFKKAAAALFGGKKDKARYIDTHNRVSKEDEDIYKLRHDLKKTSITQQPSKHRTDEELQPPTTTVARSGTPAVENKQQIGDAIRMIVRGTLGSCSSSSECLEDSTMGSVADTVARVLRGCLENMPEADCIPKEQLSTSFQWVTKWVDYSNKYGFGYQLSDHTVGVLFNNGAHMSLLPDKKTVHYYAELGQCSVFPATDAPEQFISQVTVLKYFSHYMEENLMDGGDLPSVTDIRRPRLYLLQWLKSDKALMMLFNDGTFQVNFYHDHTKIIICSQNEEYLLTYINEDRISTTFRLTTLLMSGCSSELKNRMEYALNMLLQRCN
T3 sequence (P07948 1-491 isoform P07948-2): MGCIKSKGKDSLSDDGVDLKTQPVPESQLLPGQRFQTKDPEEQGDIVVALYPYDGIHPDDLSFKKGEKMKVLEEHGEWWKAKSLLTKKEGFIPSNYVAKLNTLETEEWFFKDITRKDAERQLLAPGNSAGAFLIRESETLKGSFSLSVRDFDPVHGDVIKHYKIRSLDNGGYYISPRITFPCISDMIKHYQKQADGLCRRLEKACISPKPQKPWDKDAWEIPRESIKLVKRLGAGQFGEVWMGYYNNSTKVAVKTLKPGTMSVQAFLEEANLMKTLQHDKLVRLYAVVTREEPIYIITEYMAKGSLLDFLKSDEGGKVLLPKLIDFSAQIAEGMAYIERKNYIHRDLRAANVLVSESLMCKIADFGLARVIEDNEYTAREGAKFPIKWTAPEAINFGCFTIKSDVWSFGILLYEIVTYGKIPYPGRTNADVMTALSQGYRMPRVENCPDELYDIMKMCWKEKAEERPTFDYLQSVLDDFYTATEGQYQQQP
T1 sequence (Q08345 19-913): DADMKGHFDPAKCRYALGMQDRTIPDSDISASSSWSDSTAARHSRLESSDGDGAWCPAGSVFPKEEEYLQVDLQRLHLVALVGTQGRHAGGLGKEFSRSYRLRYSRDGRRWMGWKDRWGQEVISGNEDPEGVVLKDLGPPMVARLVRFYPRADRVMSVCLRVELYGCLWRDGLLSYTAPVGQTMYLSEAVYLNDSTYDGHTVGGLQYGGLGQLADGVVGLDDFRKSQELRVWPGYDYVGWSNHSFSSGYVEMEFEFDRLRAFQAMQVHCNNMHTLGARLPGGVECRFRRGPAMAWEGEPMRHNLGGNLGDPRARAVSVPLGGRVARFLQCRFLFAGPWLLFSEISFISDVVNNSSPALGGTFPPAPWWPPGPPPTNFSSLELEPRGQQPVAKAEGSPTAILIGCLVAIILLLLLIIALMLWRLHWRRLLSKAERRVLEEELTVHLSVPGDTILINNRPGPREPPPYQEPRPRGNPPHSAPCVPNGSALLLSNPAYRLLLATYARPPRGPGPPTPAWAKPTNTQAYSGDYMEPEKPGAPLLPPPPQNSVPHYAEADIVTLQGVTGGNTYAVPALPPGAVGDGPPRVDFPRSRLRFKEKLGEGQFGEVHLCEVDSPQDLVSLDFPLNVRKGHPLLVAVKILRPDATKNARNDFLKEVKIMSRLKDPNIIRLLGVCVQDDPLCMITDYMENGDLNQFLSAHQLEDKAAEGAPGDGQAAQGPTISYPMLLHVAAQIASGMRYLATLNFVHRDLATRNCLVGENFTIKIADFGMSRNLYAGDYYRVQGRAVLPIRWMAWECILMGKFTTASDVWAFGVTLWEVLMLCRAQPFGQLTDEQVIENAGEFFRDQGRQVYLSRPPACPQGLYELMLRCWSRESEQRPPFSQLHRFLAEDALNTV

SMILES	Percentage inhibition of kinase enzyme activity (DDR1) [%]	Percentage inhibition of kinase enzyme activity (EPHA2) [%]	Percentage inhibition of kinase enzyme activity (LYNb) [%]	Percentage inhibition of kinase enzyme activity (CDC7/ASK) [%]	Percentage inhibition of kinase enzyme activity (CDK2/CycE1) [%]	Percentage inhibition of kinase enzyme activity (HIPK4) [%]	Percentage inhibition of kinase enzyme activity (MST3) [%]	Percentage inhibition of kinase enzyme activity (PDHK4) [%]	Percentage inhibition of kinase enzyme activity (PHKG1) [%]	Percentage inhibition of kinase enzyme activity (PIM2) [%]	Percentage inhibition of kinase enzyme activity (PKACα) [%]	Percentage inhibition of kinase enzyme activity (PKCβ1) [%]	Percentage inhibition of kinase enzyme activity (PKCε) [%]	Percentage inhibition of kinase enzyme activity (PLK2) [%]	Percentage inhibition of kinase enzyme activity (ROCK2) [%]	Percentage inhibition of kinase enzyme activity (Aurora B) [%]	inhibition at 1 µM (Aurora B; read-out: Inhibition of Aurora B) [%]
CC#CC(=O)N1CCC[C@H]1c1nc(-c2ccc(C(=O)Nc3ccccn3)cc2)c2c(N)nccn12 [acalabrutinib]	7.80	-3.60	-1.97	-1.64	-4.82	-9.54	-2.52	0.39	-4.16	-16.50	-5.14	-10.97	-8.62	2.47	-2.29	10.86	
C=CC(=O)N1CCC[C@@H](n2nc(-c3ccc(Oc4ccccc4)cc3)c3c(N)ncnc32)C1 [ibrutinib]	37.17	6.83	100.13	-0.99	-8.27	2.60	7.79		1.53	-5.09	-10.78	-2.90	7.63	1.72	3.74	-1.10	
O=C(c1ccc(Oc2ccccc2)cc1Cl)c1c[nH]c2ncnc(N[C@@H]3CC[C@@H](CO)OC3)c12 [nemtabrutinib]	93.81	33.13	66.12	-1.26	-17.66	13.77	60.10	-2.73	7.46	-5.51	0.95	-3.07	12.58	3.06	15.55	57.52	
COc1ccc(F)cc1C(=O)NCc1ccc(-c2nn([C@@H](C)C(F)(F)F)c(N)c2C(N)=O)cc1 [pirtobrutinib]	2.52	4.53	26.06	-5.67	-41.48	2.58	0.67	3.76	4.81	-1.91	-26.62	5.78	18.12	2.89	1.18	88.69	> 75
C=CC(=O)N1CCC([C@@H]2CCNc3c(C(N)=O)c(-c4ccc(Oc5ccccc5)cc4)nn32)CC1 [zanubrutinib]		-0.10															
